Assay [1] concerns the target T1, TYK2 (JH2domain-pseudokinase) (Homo sapiens, UniProt P29597).
T1 construct: TYK2 (JH2domain-pseudokinase)-tagged T7 phage strains were prepared in an E. coli host derived from the BL21 strain; made in house; host or cells: E. coli BL21-derived host (T7 phage) or HEK-293 cells
Description: TYK2 JH2 domain binding assay (KINOMEscan). The procedure: TYK2 (JH2domain-pseudokinase) KINOMEscan assay. For the assay, TYK2 (JH2domain-pseudokinase)-tagged T7 phage strains were prepared in an E. coli host derived from the BL21 strain.E. coli were grown to log-phase and infected with T7 phage and incubated with shaking at 32°C until lysis. The lysates were centrifuged and filtered to remove cell debris. The remaining TYK2 (JH2domain-pseudokinase) were produced in HEK-293 cells and subsequently tagged with DNA for qPCR detection. Streptavidin-coated magnetic beads were treated with biotinylated small molecule ligands for 30 minutes at room temperature to generate affinity resins for kinase assays. The liganded beads were blocked with excess biotin and washed with blocking buffer (SeaBlock (Pierce), 1% BSA, 0.05% Tween 20, 1 mM DTT) to remove unbound ligand and to reduce non-specific binding. Binding reactions were assembled by combining TYK2 (JH2domain-pseudokinase), liganded affinity beads, and test compounds in 1x binding buffer (20% SeaBlock, 0.17x PBS, 0.05% Tween 20, 6 mM DTT). Test compounds were prepared as 111X stocks in 100% DMSO. Kds were determined using an 11-point 3-fold compound dilution series with three DMSO control points. All compounds for Kd measurements are distributed by acoustic transfer (non-contact dispensing) in 100% DMSO. The compounds were then diluted directly into the assays such that the final concentration of DMSO was 0.9%. All reactions performed in polypropylene 384-well plate. Each was a final volume of 0.02 ml. The assay plates were incubated at room temperature with shaking for 1 hour and the affinity beads were washed with wash buffer (1x PBS, 0.05% Tween 20). The beads were then re-suspended in elution buffer (1x PBS, 0.05% Tween 20, 0.5 µM non-biotinylated affinity ligand) and incubated at room temperature with shaking for 30 minutes. The kinase concentration in the eluates was measured by qPCR. […]
An 11-point 3-fold serial dilution of each test compound was prepared in 100% DMSO at 100x final test concentration and subsequently diluted to 1x in the assay (final DMSO concentration = 1%). Most Kds were determined using a compound top concentration = 30,000 nM. If the initial Kd determined was < 0.5 nM (the lowest concentration tested), the measurement was repeated with a serial dilution starting at a lower top concentration.
Curves were fitted using a non-linear least square fit with the Levenberg-Marquardt algorithm. […] TABLE 1: Kd Affinities for Tyk2 JH2 Domain Binding Assay.

Assay [2] relates to STAT1/3 through TYK2/JAK1. As to the kind of experiment: IFNa induced STAT phosphorylation in HEK293 cells (SIE-bla reporter gene). It is filed as cell-based. The settings on record: Homo sapiens, HEK293; HEK293T-sie-bla cells, IFNa at EC80, 4 hours; read-out: Inhibition of IFNa induced STAT phosphorylation HEK293 cells IC50. On the procedure: Stimulation of HEK293T-sie-bla cells with interferon alpha (INFa) activates the signaling pathway of STAT1/3 through TYK2/JAK1. In this assay, measurement of the activity of the reporter gene […]-lactamase expression was used as the readout.
CellSensorTM SIE-bla HEK293T cell line were purchased from Thermo Fisher Scientific (ref. #K1649B) and cultured as specified by the provider. A number of 30.000 cells per well (40 µl) were plated in a 384-well plate (Corning ref.# 3712) and cultured overnight at 37°C with 5% CO2 in a complete Optimem media (ThermoFisher ref. #11058-021) containing 0.5% (v/v) heat inactivated dialyzed FBS (Life Technologies ref. #26400044), 10 µM non-essential aminoacids NEAA (Sigma ref. #M7145), 100 µM Sodium Pyruvate (Gibco ref. #11360-039) and 100 U/mL Penicillin (Sigma ref. #P0781). Compounds were initially dissolved in 100% DMSO. Compound curves were then prepared using a 1/5 serial dilution (10 dilutions). The dilutions were directly diluted in complete Optimem media at 40-fold their final concentration in 20% DMSO. IFNa initial solution (R&D systems ref. #11100-1) was prepared at 10-fold its EC80 in complete Optimem media. Compounds and IFNa were added simultaneously to the wells with cells and incubated during 4 hours at 37°C (the final DMSO was 0.1%). The […]-lactamase substrate (LifeTechnologies ref.#K1138) was prepared at 6-fold its final concentration as specified by the provider. Then 10 µL of the mixture was added to the wells to stop the stimulation. Plate was left in the dark over-night. Then a FRET reading was performed on an appropriate plate reader.
All experiments were analysed using an ExcelFit template and the four-parameter log equation. […] TABLE 2: IC50 Inhibitions of IFNa induced STAT phosphorylation in HEK293 cells

T1 sequence (P29597 589-875 limits assumed): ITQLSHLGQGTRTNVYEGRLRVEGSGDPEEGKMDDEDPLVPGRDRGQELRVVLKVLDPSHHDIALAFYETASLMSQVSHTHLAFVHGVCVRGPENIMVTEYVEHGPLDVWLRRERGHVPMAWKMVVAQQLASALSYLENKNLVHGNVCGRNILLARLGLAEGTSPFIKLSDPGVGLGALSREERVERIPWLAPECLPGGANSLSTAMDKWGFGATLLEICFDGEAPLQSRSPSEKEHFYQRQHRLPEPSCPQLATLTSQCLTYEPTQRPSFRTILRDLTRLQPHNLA

With `COc1c(Nc2cc(Nc3cc(C)nc(C)n3)ncn2)cccc1-c1nc(C)nn1C` [Example 40, N6-(2,6-dimethylpyrimidin-4-yl)-N4-[3-(2,5-dimethyl-1,2,4-triazol-3-yl)-2-methoxy-phenyl]pyrimidine-4,6-diamine], the Kd (usually the free concentration of one partner at which half of the binding sites on the other are occupied at equilibrium, for simple one-to-one binding) in assay [1] was in the range of 0.001 to 0.01 µM. Besides, the IC50 (usually the concentration at which inhibition is half-maximal) in assay [2] was 0.1 to 1 µM.
Turning to `COc1c(Nc2cc(Nc3cc(C)nc(C)n3)ncn2)cccc1-c1nnn(C)n1` [Example 41, N4-(2,6-dimethylpyrimidin-4-yl)-N6-[2-methoxy-3-(2-methyltetrazol-5-yl)phenyl]pyrimidine-4,6-diamine], the Kd in assay [1] is less than 0.0002 µM. In addition, the IC50 in assay [2] lay within 0.01 to 0.1 µM.
For `COc1c(Nc2cc(Nc3cc(C)nc(C)n3)ncn2)cccc1-c1ccnnc1` [Example 42, N6-(2,6-dimethylpyrimidin-4-yl)-N4-(2-methoxy-3-pyridazin-4-yl-phenyl)pyrimidine-4,6-diamine], in that order: 0.001 to 0.01 µM and more than 1 µM.
The matching figures for `COc1c(Nc2cc(Nc3cc(C)nc(C)n3)ncn2)cccc1-c1ncn(C2COC2)n1` [Example 43, N4-(2,6-dimethylpyrimidin-4-yl)-N6-[2-methoxy-3-[1-(oxetan-3-yl)-1,2,4-triazol-3-yl]phenyl]pyrimidine-4,6-diamine]: 0.0002 to 0.001 µM and 0.1 to 1 µM.
The matching figures for `COCCn1cnc(-c2cccc(Nc3cc(Nc4cc(C)nc(C)n4)ncn3)c2OC)n1` [Example 44, N6-(2,6-dimethylpyrimidin-4-yl)-N4-[2-methoxy-3-[1-(2-methoxyethyl)-1,2,4-triazol-3-yl]phenyl]pyrimidine-4,6-diamine]: 0.0002 to 0.001 µM and 0.01 to 0.1 µM.
Consider `CCn1cnc(-c2cccc(Nc3cc(Nc4cc(C)nc(C)n4)ncn3)c2OC)n1` [Example 46, N4-(2,6-dimethylpyrimidin-4-yl)-N6-[3-(1-ethyl-1,2,4-triazol-3-yl)-2-methoxy-phenyl]pyrimidine-4,6-diamine], for which, in assay [1], the Kd is less than 0.0002 µM. Further, the IC50 in assay [2] lay within 0.01 to 0.1 µM.
The matching figures for `COc1c(Nc2cc(Nc3cc(C)nc(C)n3)ncn2)cccc1-c1ncn(CC2CCCCO2)n1` (stereo not shown) [Example 47, N4-(2,6-dimethylpyrimidin-4-yl)-N6-[2-methoxy-3-[1-(tetrahydropyran-2-ylmethyl)-1,2,4-triazol-3-yl]phenyl]pyrimidine-4,6-diamine]: 0.0002 to 0.001 µM and 0.01 to 0.1 µM.
For `COc1c(Nc2cc(Nc3cc(C)nc(C)n3)ncn2)cccc1-c1nc(C)nn1C1COC1` [Example 48, N4-(2,6-dimethylpyrimidin-4-yl)-N6-[2-methoxy-3-[5-methyl-2-(oxetan-3-yl)-1,2,4-triazol-3-yl]phenyl]pyrimidine-4,6-diamine], the Kd in assay [1] is more than 0.01 µM. Also, the half-maximal inhibitory concentration (IC50) in assay [2] was more than 1 µM.
For `COc1c(Nc2cc(Nc3cc(C)nc(C)n3)ncn2)cccc1-c1nc(C)n(C2COC2)n1` [Example 49, N4-(2,6-dimethylpyrimidin-4-yl)-N6-[2-methoxy-3-[5-methyl-1-(oxetan-3-yl)-1,2,4-triazol-3-yl]phenyl]pyrimidine-4,6-diamine], in that order: 0.0002 to 0.001 µM and more than 1 µM.
For `COc1c(Br)cccc1Nc1cc(Nc2cc(C)nc(C)n2)ncn1` [Example 50, N6-(3-bromo-2-methoxy-phenyl)-N4-(2,6-dimethylpyrimidin-4-yl)pyrimidine-4,6-diamine], in that order: 0.001 to 0.01 µM and 0.1 to 1 µM.
The matching figures for `COc1c(Nc2cc(Nc3cc(C)nc(C)n3)ncn2)cccc1-c1ncn(CC2COC2)n1` [Example 51, N6-(2,6-dimethylpyrimidin-4-yl)-N4-[2-methoxy-3-[1-(oxetan-3-ylmethyl)-1,2,4-triazol-3-yl]phenyl]pyrimidine-4,6-diamine]: less than 0.0002 µM and 0.01 to 0.1 µM.
The molecule `COc1c(Nc2cc(Nc3cc(C)nc(C)n3)ncn2)cccc1-c1ncn(CC2CCOCC2)n1` [Example 52, N4-(2,6-dimethylpyrimidin-4-yl)-N6-[2-methoxy-3-[1-(tetrahydropyran-4-ylmethyl)-1,2,4-triazol-3-yl]phenyl]pyrimidine-4,6-diamine] gave a Kd in assay [1] of 0.0002 to 0.001 µM. Further, the IC50 in assay [2] was 0.1 to 1 µM.
As for `COc1c(Nc2cc(Nc3cc(C)nc(C)n3)ncn2)cccc1-c1ncn(CC2CC(F)(F)C2)n1` [Example 53, N6-[3-[1-[(3,3-difluorocyclobutyl)methyl]-1,2,4-triazol-3-yl]-2-methoxyphenyl]-N4-(2,6-dimethylpyrimidin-4-yl)pyrimidine-4,6-diamine], the Kd in assay [1] lay in the range of 0.0002 to 0.001 µM. Further, the IC50 in assay [2] was 0.1 to 1 µM.
For `COc1c(Nc2cc(Nc3cc(C)nc(C)n3)ncn2)cccc1-c1ncn(C2CC2(F)F)n1` (stereo not shown) [Example 55, N6-[3-[1-(2,2-difluorocyclopropyl)-1,2,4-triazol-3-yl]-2-methoxy-phenyl]-N4-(2,6-dimethylpyrimidin-4-yl)pyrimidine-4,6-diamine], in that order: 0.0002 to 0.001 µM and 0.01 to 0.1 µM.
As for `Cc1cc(Nc2cc(Nc3nccc(C)c3N(C)S(C)(=O)=O)ncn2)nc(C)n1` [Example 61, N-(2-((6-((2,6-dimethylpyrimidin-4-yl)amino)pyrimidin-4-yl)amino)-4-methylpyridin-3-yl)-N-methylmethanesulfonamide], the Kd in assay [1] was in the range of 0.001 to 0.01 µM. The IC50 in assay [2] lay in the range of 0.1 to 1 µM.
The matching figures for `COc1c(Nc2cc(Nc3cc(C)nc(C)n3)ncn2)cccc1-c1noc(CN2CCOCC2)n1` [Example 62, N6-(2,6-dimethylpyrimidin-4-yl)-N4-[2-methoxy-3-[5-(morpholinomethyl)-1,2,4-oxadiazol-3-yl]phenyl]pyrimidine-4,6-diamine]: less than 0.0002 µM and 0.01 to 0.1 µM.
For `COc1c(Nc2cc(Nc3cc(C)nc(C)n3)ncn2)ccc(C)c1-c1ncn(C)n1` [Example 63, 6-N-(2,6-dimethylpyrimidin-4-yl)-4-N-[2-methoxy-4-methyl-3-(1-methyl-1,2,4-triazol-3-yl)phenyl]pyrimidine-4,6-diamine], in that order: 0.0002 to 0.001 µM and 0.01 to 0.1 µM.
As to `COc1c(Nc2cc(Nc3cc(C)nc(C)n3)ncn2)ccc(F)c1-c1ncn(C)n1` [Example 64, N4-(2,6-dimethylpyrimidin-4-yl)-N6-[4-fluoro-2-methoxy-3-(1-methyl-1,2,4-triazol-3-yl)phenyl]pyrimidine-4,6-diamine], the Kd in assay [1] was 0.0002 to 0.001 µM. Besides, the IC50 in assay [2] is 0.1 to 1 µM.
As to `COc1c(Nc2cc(Nc3ccc(F)cn3)ncn2)cccc1-c1ncn(C)n1` [Example 65, N4-(5-fluoro-2-pyridyl)-N6-[2-methoxy-3-(1-methyl-1,2,4-triazol-3-yl)phenyl]pyrimidine-4,6-diamine], the Kd in assay [1] fell in the range of 0.0002 to 0.001 µM. The IC50 in assay [2] lay within 0.01 to 0.1 µM.
For `Cc1cc(Nc2cc(Nc3ccccc3CS(C)(=O)=O)ncn2)nc(C)n1` [Example 66, N4-(2,6-dimethylpyrimidin-4-yl)-N6-[2-(methylsulfonylmethyl)phenyl]pyrimidine-4,6-diamine], in that order: 0.0002 to 0.001 µM and 0.1 to 1 µM.

The values are drawn from EP4206196A1, “PYRIMIDINE SUBSTITUTED DERIVATIVES AS TYK2 INHIBITORS” (Almirall S.A., priority 2021, dated 2023).
